Measurements reported in ChEMBL document CHEMBL3880383, “2-oxo-1-pyrrolidine derivative and its pharmaceutical uses” (2004).

Experiments:
Mus musculus = assay: Anticonvulsant activity in ip dosed sound susceptible DBA mouse model assessed as protection against audiogenic seizure-induced wild running, clonic and tonic convulsion administered 60 mins prior to induction of audiogenic seizures measured for 30 secs; type: functional
[1] = molecular target: Synaptic vesicle glycoprotein 2A (Rattus norvegicus, UniProt Q02563); assay: Displacement of [3H]-2-[4-(3-azidophenyl)-2-oxo-1-pyrrolidinyl]butanamide from SV2A levetiracetam binding site in Sprague-Dawley rat cerebral cortex membranes after 120 mins by liquid scintillation counting method; parameters: species or system Membrane
[2] = Mus musculus, DBA, ip, read-out: ED50

Synaptic vesicle glycoprotein 2A, sequence (Q02563 whole entry): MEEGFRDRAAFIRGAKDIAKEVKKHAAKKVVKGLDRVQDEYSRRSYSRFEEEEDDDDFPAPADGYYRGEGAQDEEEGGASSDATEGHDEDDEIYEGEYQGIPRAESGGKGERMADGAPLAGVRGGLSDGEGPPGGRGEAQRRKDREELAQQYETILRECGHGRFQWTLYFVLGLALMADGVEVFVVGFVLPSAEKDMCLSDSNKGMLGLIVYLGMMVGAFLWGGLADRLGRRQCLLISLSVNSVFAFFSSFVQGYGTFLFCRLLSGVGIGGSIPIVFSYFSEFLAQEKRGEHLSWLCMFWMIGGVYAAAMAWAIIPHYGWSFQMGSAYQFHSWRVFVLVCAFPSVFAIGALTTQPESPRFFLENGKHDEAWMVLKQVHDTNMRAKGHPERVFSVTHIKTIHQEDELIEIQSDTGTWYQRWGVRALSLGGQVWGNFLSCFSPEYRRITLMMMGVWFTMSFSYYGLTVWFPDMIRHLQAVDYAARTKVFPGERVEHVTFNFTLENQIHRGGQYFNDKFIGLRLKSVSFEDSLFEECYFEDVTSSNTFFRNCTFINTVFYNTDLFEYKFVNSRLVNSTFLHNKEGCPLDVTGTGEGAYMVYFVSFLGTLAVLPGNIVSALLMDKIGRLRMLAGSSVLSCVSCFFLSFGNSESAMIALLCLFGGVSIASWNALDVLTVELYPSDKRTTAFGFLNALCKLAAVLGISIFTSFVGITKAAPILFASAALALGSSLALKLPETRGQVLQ

Structure (SMILES)	ED50 (Mus musculus; [2])	Ki [1]	ED50 (Mus musculus)
CCC(C(N)=O)N1CC(c2cccc(C)c2)CC1=O (stereo not drawn)	100 µmol/kg	≤ 1000 nM	–
CCCC1CC(=O)N(C(CCC)C(N)=O)C1 (stereo not drawn)	–	≤ 1000 nM	–
CC[C@@H](C(N)=O)N1CC(CI)CC1=O (stereo partly drawn)	100 µmol/kg	≤ 1000 nM	–
CC[C@@H](C(N)=O)N1CC(c2ccc(-c3ccccc3)cc2)CC1=O (stereo partly drawn)	–	≤ 1000 nM	–
CCC[C@@H]1CC(=O)N([C@@H](CC)C(N)=O)C1 [BRIVARACETAM]	100 µmol/kg	≤ 1000 nM	–
C[C@@H](C(N)=O)N1C[C@H](CI)CC1=O	100 µmol/kg	≤ 1000 nM	–
CCC(C(N)=O)N1CC(c2ccccc2F)CC1=O (stereo not drawn)	100 µmol/kg	≤ 1000 nM	–
CCCC1CC(=O)N(C(CC)C(N)=O)C1 (stereo not drawn)	100 µmol/kg	≤ 1000 nM	–
CC[C@@H](C(N)=O)N1CC(CCl)CC1=O (stereo partly drawn)	100 µmol/kg	≤ 1000 nM	–
CCC(C(N)=O)N1CC(c2ccccc2C(F)(F)F)CC1=O (stereo not drawn)	–	≤ 1000 nM	–
CCCCOC(=O)CC(CCC)CN[C@@H](CC)C(N)=O (stereo partly drawn)	100 µmol/kg	–	–
CC[C@@H](C(N)=O)N1CC(CN=C=S)CC1=O (stereo partly drawn)	–	≤ 1000 nM	–
CCC(C(N)=O)N1CC(c2ccco2)CC1=O (stereo not drawn)	100 µmol/kg	≤ 1000 nM	–
CC[C@@H](C(N)=O)N1CC(CBr)CC1=O (stereo partly drawn)	100 µmol/kg	≤ 1000 nM	–
CCC(C(N)=O)N1CC(c2ccc(Cl)cc2Cl)CC1=O (stereo not drawn)	100 µmol/kg	≤ 1000 nM	–
CCC(C(N)=O)N1CC(c2cccc(Cl)c2)CC1=O (stereo not drawn)	100 µmol/kg	≤ 1000 nM	–
CCCC(CN[C@@H](CC)C(N)=O)CC(=O)OC(C)C (stereo partly drawn)	100 µmol/kg	–	–
C=C[C@@H]1CC(=O)N([C@@H](CC)C(N)=O)C1	100 µmol/kg	≤ 1000 nM	–
CC[C@@H](C(N)=O)N1CC(CCC(F)(F)F)CC1=O (stereo partly drawn)	100 µmol/kg	≤ 1000 nM	–
CCC(C(N)=O)N1CC(C=C(Br)Br)CC1=O (stereo not drawn)	100 µmol/kg	≤ 1000 nM	–
CCC(C(N)=O)N1CC(c2ccccc2Br)CC1=O (stereo not drawn)	100 µmol/kg	≤ 1000 nM	–

Structure (SMILES)	ED50 (Mus musculus; [2])	Ki [1]	ED50 (Mus musculus)
CCC(C(N)=O)N1CC(c2ccc(Cl)c(Cl)c2)CC1=O (stereo not drawn)	100 µmol/kg	≤ 1000 nM	–
CCC(C(N)=O)N1CC(/C=C\F)CC1=O (stereo not drawn)	100 µmol/kg	≤ 1000 nM	–
CCC(C(N)=O)N1CC(CC(C)C)CC1=O (stereo not drawn)	100 µmol/kg	≤ 1000 nM	–
C#CC1CC(=O)N(C(CC)C(N)=O)C1 (stereo not drawn)	100 µmol/kg	≤ 1000 nM	–
CC[C@@H](C(N)=O)N1CC(Cn2cnnn2)CC1=O (stereo partly drawn)	100 µmol/kg	≤ 1000 nM	–
CC[C@@H](C(N)=O)N1CC(c2cccc(OC)c2)CC1=O (stereo partly drawn)	–	≤ 1000 nM	–
C=CCC(C(N)=O)N1CC(CCC)CC1=O (stereo not drawn)	–	≤ 1000 nM	–
CCC(C(N)=O)N1CC(C=C(C)C)CC1=O (stereo not drawn)	100 µmol/kg	≤ 1000 nM	–
CCCC1CC(=O)N(C(CC2CC2)C(N)=O)C1 (stereo not drawn)	–	≤ 1000 nM	–
CCC[C@@H](C(N)=O)N1C[C@H](CI)CC1=O	100 µmol/kg	≤ 1000 nM	–
CCC1CC(=O)N([C@@H](CC)C(N)=O)C1 (stereo partly drawn)	100 µmol/kg	≤ 1000 nM	–
CC[C@@H](C(N)=O)N1CC(n2cccc2)CC1=O (stereo partly drawn)	100 µmol/kg	≤ 1000 nM	–
CCCC1(C)CC(=O)N([C@@H](CC)C(N)=O)C1 (stereo partly drawn)	100 µmol/kg	≤ 1000 nM	–
CC[C@@H](C(N)=O)N1C[C@H](CN=[N+]=[N-])CC1=O	100 µmol/kg	≤ 1000 nM	–
CC[C@@H](C(N)=O)N1CC(CSC)CC1=O (stereo partly drawn)	100 µmol/kg	≤ 1000 nM	–
CC[C@@H](C(N)=O)N1CC(n2cccc2Br)CC1=O (stereo partly drawn)	100 µmol/kg	≤ 1000 nM	–
CCC(C(N)=O)N1CC(CI)CC1=O (stereo not drawn)	–	≤ 1000 nM	–
CC[C@@H](C(N)=O)N1C[C@H](CI)CC1=O	100 µmol/kg	≤ 1000 nM	–
CC[C@@H](C(N)=O)N1CC(c2ccc(N=[N+]=[N-])cc2)CC1=O (stereo partly drawn)	100 µmol/kg	≤ 1000 nM	–
CCCC1CC(=O)N(C(Cc2cscn2)C(N)=O)C1 (stereo not drawn)	–	≤ 1000 nM	–
CC[C@@H](C(N)=O)N1CC(c2cc(Br)cc(Br)c2)CC1=O (stereo partly drawn)	100 µmol/kg	≤ 1000 nM	–

Structure (SMILES)	ED50 (Mus musculus; [2])	Ki [1]	ED50 (Mus musculus)
CCCC(CN[C@@H](CC)C(N)=O)CC(=O)OCCC12CC3CC(CC(C3)C1)C2 (stereo partly drawn)	100 µmol/kg	–	–
CCC(C(N)=O)N1CC(C=C(F)F)CC1=O (stereo not drawn)	100 µmol/kg	≤ 1000 nM	–
CCC(C(N)=O)N1CC(c2cccnc2)CC1=O (stereo not drawn)	100 µmol/kg	≤ 1000 nM	–
CCC[C@H]1CC(=O)N([C@@H](CC)C(N)=O)C1	100 µmol/kg	≤ 1000 nM	–
CC[C@@H](C(N)=O)N1CC(c2ccccc2)CC1=O (stereo partly drawn)	100 µmol/kg	≤ 1000 nM	–
CCC(C(N)=O)N1CC(c2cc(C(F)(F)F)cc(C(F)(F)F)c2)CC1=O (stereo not drawn)	–	≤ 1000 nM	–
CCCCCC1CC(=O)N(C(CC)C(N)=O)C1 (stereo not drawn)	–	≤ 1000 nM	–
C=C[C@H]1CC(=O)N([C@@H](CC)C(N)=O)C1	100 µmol/kg	≤ 1000 nM	–
CCC(C(N)=O)N1CC(CC2CC2)CC1=O (stereo not drawn)	100 µmol/kg	≤ 1000 nM	–
CC[C@@H](C(N)=O)N1CC(CC(C)(C)C)CC1=O (stereo partly drawn)	–	≤ 1000 nM	–
CCCC1CC(=O)N(C(C)C(N)=O)C1 (stereo not drawn)	–	≤ 1000 nM	–
CCC(C(N)=O)N1C[C@H](CC(C)(F)F)CC1=O (stereo partly drawn)	100 µmol/kg	≤ 1000 nM	–
CCCC(CN[C@@H](CC)C(N)=O)CC(=O)OCC (stereo partly drawn)	100 µmol/kg	–	–
CC[C@@H](C(=O)NC)N1C[C@H](CI)CC1=O	100 µmol/kg	≤ 1000 nM	–
CC[C@@H](C(N)=O)N1CC(CC2CC2)CC1=O (stereo partly drawn)	100 µmol/kg	≤ 1000 nM	–
CC[C@@H](C(N)=O)N1CC(c2cccc(Br)c2)CC1=O (stereo partly drawn)	100 µmol/kg	≤ 1000 nM	–
CC[C@@H](C(N)=O)N1CC(CCCc2ccccc2)CC1=O (stereo partly drawn)	100 µmol/kg	≤ 1000 nM	–
CCC(C(N)=O)N1CC(c2ccc(Cl)cc2)CC1=O (stereo not drawn)	–	≤ 1000 nM	–
CC[C@H](C(N)=O)N1CC(C=C(Cl)Cl)CC1=O (stereo partly drawn)	100 µmol/kg	≤ 1000 nM	–
CC[C@@H](C(N)=O)N1CC(c2cccs2)CC1=O (single isomer, unassigned; diastereomer 1)	100 µmol/kg	–	–
CC[C@@H](C(N)=O)N1CC(CO[N+](=O)[O-])CC1=O (stereo partly drawn)	100 µmol/kg	≤ 1000 nM	–

Structure (SMILES)	ED50 (Mus musculus; [2])	Ki [1]	ED50 (Mus musculus)
CC[C@@H](C(N)=O)N1CC(C#CBr)CC1=O (stereo partly drawn)	100 µmol/kg	≤ 1000 nM	–
CC[C@@H](C(N)=O)N1CC(CC(C)=O)CC1=O (stereo partly drawn)	100 µmol/kg	≤ 1000 nM	–
C=CCC1CC(=O)N([C@@H](CC)C(N)=O)C1 (stereo partly drawn)	100 µmol/kg	≤ 1000 nM	–
CCCCC1CC(=O)N(C(CC)C(N)=O)C1 (stereo not drawn)	100 µmol/kg	≤ 1000 nM	–
CCC(C(N)=O)N1CC(CS(=O)(=O)c2ccccc2)CC1=O (stereo not drawn)	–	≤ 1000 nM	–
CC[C@@H](C(N)=O)N1C[C@@H](C=C(Br)Br)CC1=O	100 µmol/kg	≤ 1000 nM	–
CC[C@@H](C(N)=O)N1CC(c2ccccc2OC)CC1=O (stereo partly drawn)	–	≤ 1000 nM	–
CCC(C(N)=O)N1CC(CC(F)F)CC1=O (stereo not drawn)	–	≤ 1000 nM	–
CCC(C(N)=O)N1CC(C#CBr)CC1=O (stereo not drawn)	100 µmol/kg	≤ 1000 nM	–
CC[C@@H](C(N)=O)N1CC(c2ccsc2)CC1=O (stereo partly drawn)	100 µmol/kg	≤ 1000 nM	–
CC[C@@H](C(N)=O)N1CC(COS(=O)(=O)c2ccc(C)cc2)CC1=O (stereo partly drawn)	100 µmol/kg	≤ 1000 nM	–
C=CC1CC(=O)N(C(CC)C(N)=O)C1 (stereo not drawn)	100 µmol/kg	≤ 1000 nM	–
CC[C@@H](C(N)=O)N1CC(CCc2ccccc2)CC1=O (stereo partly drawn)	–	≤ 1000 nM	–
CCC(C(N)=O)N1CC(c2nccs2)CC1=O (stereo not drawn)	100 µmol/kg	≤ 1000 nM	–
CC[C@@H](C(N)=O)N1C[C@@H](C=C(F)F)CC1=O	100 µmol/kg	≤ 1000 nM	–
CC[C@@H](C(N)=O)N1CC(c2cccc(N=[N+]=[N-])c2)CC1=O (stereo partly drawn)	100 µmol/kg	≤ 1000 nM	–
CC[C@@H](C(N)=O)N1CC(c2cccs2)CC1=O (single isomer, unassigned; diastereomer 2)	–	≤ 1000 nM	100 µmol/kg
CC[C@@H](C(N)=O)N1C[C@H](C=C(Br)Br)CC1=O	100 µmol/kg	≤ 1000 nM	–
CC[C@@H](C(N)=O)N1C[C@H](C=C(F)F)CC1=O [SELETRACETAM]	100 µmol/kg	≤ 1000 nM	–
CC[C@@H](C(N)=O)N1CC(CC(C)I)CC1=O (stereo partly drawn)	100 µmol/kg	≤ 1000 nM	–
